{"source": "patent US9597336B2", "about": "“Therapy for treatment of chronic degenerative brain diseases and nervous system injury” (THE REGENTS OF THE UNIVERSITY OF CALIFORNIA, priority 2004, dated 2017)", "key": {"Niemann Pick type-C mice [1]": {"test_system": "Niemann Pick type-C mice", "test": "Allopregnanolone, T0901317 and their combination in NP-C mice: lifespan, rotorod", "assay_type": "in vivo, mouse", "conditions": "for lifespan (mean): allopregnanolone 25 mg/kg s.c. single injection at P7, T0901317 50 mg/kg/day from day 18; for onset of symptoms: rotorod trials; for age at which loss of motor function begins: untreated begin at 35 days", "experimental": "(§1) The materials and methods used for the following experiments have been described in Griffin L. D., et al., Nature Medicine 10: 704-711 (2004). This reference is hereby incorporated by reference in its entirety.\nMice were given a single injection of allopregnanolone, prepared in 20% β-cyclodextrin in phosphate buffered saline, at a concentration of 25 mg/kg. The injection was on day 7 of life (P7, postnatal day 7). T0901317 treatment was started on day 18 (50 mg/kg/day) in chow. Efficacy was assessed by measuring body weight, and neurological symptoms, using a rotorod test. Efficacy was further assessed by measuring lifespan."}, "[2]": {"test_system": "gangliosides GM1, GM2, and GM3 in the brain", "test": "Ganglioside accumulation in brain of allopregnanolone-treated Niemann Pick type-C mice", "assay_type": "in vivo, mouse", "experimental": "as §1\nMice were given a single injection of allopregnanolone, prepared in 20% βcyclodextrin in phosphate buffered saline, at a concentration of 25 mg/kg. The injection was on day 7 of life (P7, postnatal day 7). Concentrations of gangliosides GM1, GM2, GM3, were measured as well as other lipids such as ceramides and cerebrosides."}, "[3]": {"test_system": "CD4+, CD8+, MAC1+ and MHCII+ cells in brain", "test": "Immunocytochemistry of inflammatory cells in brains of NP-C mice", "assay_type": "in vivo, mouse", "experimental": "as §1\n(§2) Mice were again given a single injection of allopregnanolone, prepared in 20% β-cyclodextrin in phosphate buffered saline, at a concentration of 25 mg/kg. The injection was on day 7 of life (P7, postnatal day 7). Inflammation was measured by assessing the number of CD4^+ CD8^+, MAC1^+, and MHCII^+ cells, using immunocytochemistry. Concentrations of brain cytokines were also measured, using by enzyme linked immunoabsorbent (ELISA) assays."}, "[4]": {"test_system": "brain cytokines (TGFβ, IL1β)", "test": "Brain cytokine concentrations by ELISA in NP-C mice", "assay_type": "in vivo, mouse", "conditions": "adult NP-C mice treated at day 7, vs untreated NP-C mice", "experimental": "as §1, §2"}, "[5]": {"test_system": "cerebellar astrocytes from P3 cerebella", "test": "Neurotrophin secretion in cultured cerebellar astrocytes (ELISA)", "assay_type": "cell-based, mouse", "experimental": "as §1\nPure cultures of cerebellar astrocytes from P3 cerebella were cultured for 1-3 days±10 nM allopregnanolone, and NGF was assayed every 24 hr by ELISA."}, "Niemann Pick type-C mice [6]": {"test_system": "Niemann Pick type-C mice", "test": "Ganaxolone treatment of NP-C mice: lifespan, weight, locomotor skills", "assay_type": "in vivo, mouse", "experimental": "as §1\nMice were given a single injection of ganaxolone, prepared in 20% β-cyclodextrin in phosphate buffered saline, at a concentration of 25 mg/kg. The injection was on day 7 of life (P7, postnatal day 7).\nEfficacy of treatment was assessed by measuring body weight, neurological symptoms, using behavioral tests such as wire hang test, rope climbing test, walking on an mesh inclined plane, and walking on a horizontal surface, measuring coordination, use of all 4 limbs, posture, tail placement. Efficacy was also assessed by measuring lifespan. Results of these experiments are summarized below, and are shown graphically in FIG. 7."}, "[7]": {"conditions": "adult (60-day old) NP-C mice treated at P7"}}, "note": "Entries after “also recorded” stand apart in the source; their conditions may differ.", "data": [{"smiles": "O=S(=O)(c1ccccc1)N(CC(F)(F)F)c1ccc(C(O)(C(F)(F)F)C(F)(F)F)cc1", "note": "[T0901317]", "values": [{"measurement": "lifespan (mean)", "setting": "Niemann Pick type-C mice [1]", "value": 80, "unit": "days"}, {"measurement": "course of loss of motor function / decline in symptoms", "setting": "Niemann Pick type-C mice [1]; rotorod", "value": "blunted"}, {"measurement": "onset of symptoms", "setting": "Niemann Pick type-C mice [1]", "value": "delayed"}, {"measurement": "age at which loss of motor function begins", "setting": "Niemann Pick type-C mice [1]; rotorod", "value": 42, "unit": "days"}]}, {"smiles": "CC(=O)[C@H]1CC[C@H]2[C@@H]3CC[C@H]4C[C@H](O)CC[C@]4(C)[C@H]3CC[C@]12C", "note": "[allopregnanolone]", "values": [{"measurement": "amount of the gangliosides GM1, GM2, and GM3 in brain", "setting": "[2]; NP-C mice, single injection 25 mg/kg at P7, compared with untreated controls", "value": "reduced"}, {"measurement": "degree of reduction in the gangliosides by timing of treatment", "setting": "[2]; NP-C mice, treatment at postnatal day 7 compared with postnatal day 10", "value": "greater reduction"}, {"measurement": "GM1 or GM2 immunostaining, cerebellum", "setting": "[2]; [7]", "value": "only slight immunostaining"}, {"measurement": "GM1 or GM2 immunostaining, thalamus/hypothalamus", "setting": "[2]; [7]", "value": "only very slight immunostaining"}, {"measurement": "apoptotic neurons in the brain", "setting": "[3]; NP-C mice, 25 mg/kg single injection at P7", "value": "substantial reduction"}, {"measurement": "number of T cells and activated macrophages in brain", "setting": "[3]; NP-C mice, 25 mg/kg single injection at P7, vs untreated controls", "value": "significant reduction"}, {"measurement": "increase in immunostaining for CD4 and CD8 T cells, cerebellum", "setting": "[3]; [7]", "value": "absent"}, {"measurement": "increase in immunostaining for CD4 and CD8 T cells, thalamus/hypothalamus", "setting": "[3]; [7]", "value": "absent"}, {"measurement": "immunostaining for MAC1 and MHC II (activated macrophages), thalamus", "setting": "[3]; adult (60-day old) NP-C mice treated at day 7, vs untreated NP-C mice", "value": "substantially reduced"}, {"measurement": "brain cytokine concentrations (TGFβ and IL1β)", "setting": "[4]", "value": "substantial reduction; also recorded: substantially reduced"}, {"measurement": "production of NGF", "setting": "[5]; NP-C mouse cerebellar astrocytes cultured 1-3 days with 10 nM, vs untreated control cells", "value": "increases"}, {"measurement": "concentrations of the neurotrophins NGF and BDNF", "setting": "[5]; cerebellar cells in culture", "value": "increases"}, {"measurement": "lifespan (mean)", "setting": "Niemann Pick type-C mice [1]", "value": 112, "unit": "days"}, {"measurement": "onset of symptoms", "setting": "Niemann Pick type-C mice [1]", "value": "delayed"}, {"measurement": "age at which loss of motor function begins", "setting": "Niemann Pick type-C mice [1]; rotorod", "value": 49, "unit": "days"}]}, {"smiles": "CC(=O)[C@H]1CC[C@H]2[C@@H]3CC[C@H]4C[C@](C)(O)CC[C@]4(C)[C@H]3CC[C@]12C", "note": "[ganaxolone]", "values": [{"measurement": "weight loss and tremor", "setting": "Niemann Pick type-C mice [6]", "value": "delays"}, {"measurement": "lifespan (average)", "setting": "Niemann Pick type-C mice [6]; single injection 25 mg/kg at P7, untreated 67 (±10) days", "value": 118, "unit": "days"}, {"measurement": "duration of the loss of motor function", "setting": "Niemann Pick type-C mice [6]; single injection at P7, untreated 3-4 weeks", "value": 5, "unit": "weeks"}, {"measurement": "age at which loss of motor function (locomotion and coordination) begins", "setting": "Niemann Pick type-C mice [6]; single injection at P7, untreated begin at 6-7 weeks", "value": 10, "unit": "weeks"}, {"measurement": "age at which weight loss begins", "setting": "Niemann Pick type-C mice [6]; single injection at P7, untreated begin at 6 weeks", "value": 10, "unit": "weeks"}, {"measurement": "rate of weight loss", "setting": "Niemann Pick type-C mice [6]; single injection at P7, vs untreated NP-C mice", "value": "more slowly"}]}]}
